Experiments:
[1] = DPPH-Test (chemical test, activity against free radicals)
Text: (§1) Die optische Dichte des Extraktes lag bei 513 nm. Als erstes Testsubstrat wurde Diphenylpicrylhydrazyl (DPPH) gewählt, ein purpurrot gefärbtes stabiles Radikal, welches durch Inkontaktbringen mit Radikalfängern in sein ungefärbtes Leucoderivat übergeht. Der Farbwechsel kann photometrisch verfolgt werden. Die Meßergebnisse sind in Tabelle 2 zusammengefaßt ("DPPH-Test").. In einem weiteren Test wurde Xanthin Oxidase als Testsystem gewählt. Das Enzym bewirkt bei oxidativem Stress die Umwandlung von Purinbasen, wie z.B. Adenin oder Guanin in […], wobei die intermediär gebildeten Sauerstoffradikale durch Reaktion mit Luminol über die Lumineszenz nachgewiesen und quantitativ bestimmt werden können. In Gegenwart von Substanzen mit radikalfangenden Eigenschaften vermindert sich die Lumineszenzausbeute. Der NBT-Wert bestimmt den Gehalt von […], welches aus NBT durch das Sauerstoffradikal gebildet wird. Die optische Dichte wurde bei 540 nm bestimmt.

[2] = target: Xanthin Oxidase; test: Luminol-Test (xanthine oxidase system, luminescence); type: biochemical
Text: as §1
(§2) Diese Ergebnisse sind in Tabelle 3 zusammengefaßt; wieder ist die Inhibierung in %-absolut angegeben ("Luminol-Test"). Tab.

[3] = target: Xanthin Oxidase; test: NBT test (xanthine oxidase system, optical density at 540 nm); type: biochemical
Text: as §1, §2

[4] = target: Xanthin Oxidase; test: Luminol + Microperoxydase test (xanthine oxidase system); type: biochemical
Text: as §1, §2

[5] = test system: menschlichen Keratinozyten; test: Cell protection against UVB on human keratinocytes cultured in vitro; type: cell-based; settings: UVB 50 mJ/cm^2; 0,03 % test substance
Procedure: Methode: Der Effekt von UVB-Strahlung wurde an Keratinocyten in vitro untersucht indem die Freisetzung des Cytoplasaenzyms LDH (Lactat Dehydrogenase) bestimmt wurde. Dieses Enzym dient als Marker für eine Zellschädigung.
Zur Durchführung der Tests wurde ein definiertes Medium, das fötales Kälberserum enthält, mit den Keratinozyten beimpft und der Pflanzenextrakt (mit Saline-Lösung verdünnt) 72 Stunden nach dem Beimpfen zugegeben. […]
Nach weiterer 1 tägiger Inkubation bei 37 °C und bei 5 % CO2 wurde der LDH-Gehalt im Überstand bestimmt. Der Gehalt von LDH- (Lactatdehydrogenase) wurde mittels einer Enzymreaktion bestimmt (verwendetes Kit zur Untersuchung des LDH Gehaltes von der Firma Roche). Die Anzahl adhärenter Keratinozyten wird (nach Trypsinbehandlung) mit einem Partikelzählgerät bestimmt. Tab.

[6] = Antioxidative capacity: inhibition of lipid peroxidation in liposomes (AOP50); type: biochemical; settings: concentration at which lipid peroxidation is reduced by 50 %; Fe(II) ascorbate, 37 °C, 45 min, MDA-thiobarbituric acid at 532 nm
Procedure: Als Maß für die antioxidative Kapazität der Erdnusshäutchen Extrakte wurde ihre Fähigkeit bestimmt, die Lipidperoxidation in Liposomen zu verhindern. Dazu wurde eine 0,2 Gew.-%ige Liposomen Suspension aus Sojalecithin in Phosphatpuffer hergestellt. Die Lipidperoxidation wurde durch Zugabe eines Eisen(II)ascorbat Komplexes (10mM Fe(II)SO4, 50 mM Ascorbat) initiiert. Die Inkubation wurde bei 37 °C für 45 min. durchgeführt. Als Endprodukt der Lipidperoxidation entsteht Malondialdeyd, welches über eine Farbreaktion mit Thiobarbitursäure quantifiziert wird (photometrische Bestimming des Malondialdehyd-Thiobarbitursäure Komplexes bei 532 nm). Zur Bestimmung der antioxidativen Kapazität der Erdnusshäutchen Extrakte wurden diese in unterschiedlichen Konzentration vor der Zugabe des Eisen(II)ascorbat Komplexes zum Inkubationsansatz gegeben. Ermittelt wurde die Konzentration an Pflanzenextrakt (in µg/ml), bei der die Lipidperoxidation um 50 % verringert ist (= AOP50) im Vergleich zur Bestimmung ohne Zusatz an Pflanzenextrakt. D.h. je geringer die angegebene Konzentration AOP50, desto höher ist die antioxidative Kapazität des untersuchten Erdnussextraktes. Als Referenzsubstanz diente das Antioxidans n-Propylgallat. Tab.

[7] = Electron spin resonance spectroscopy (ESR), radical scavenging with spin trap DMPO; settings: 5 mM solution (comparison)
Text: Die Methode der Elektronenspinresonanz Spektroskopie beruht auf dem Prinzip der Generierung kurzlebiger Radikale über chemische Radikalgeneratoren, der Stabilisierung und Akkumulierung der Radikale mittels Radikalfänger (Spin-Trapper-Substanzen) und der Detektion der für die einzelnen Radikale typischen ESR-Spektren. Die radikalfangenden Eigenschaften der zu untersuchenden Substanzen werden durch die Abnahme der Signalintensitäten der getrappten Radikale charakterisiert. Im vorliegenden Fall wurde als Radikal Fänger (Spin Trapper) DMPO (5,5-Dimethyl-1-pyrrolin-N-oxid) verwendet. Die Signalintensität des mit Hilfe des DMPO gebildeten stabilen DMPO-Hydroxyadduktes wurde 100 % gesetzt. Die Abnahme dieses Signals in Abhängigkeit von der Konzentration des eingesetzten Pflanzenextraktes, ist ein Nachweis für die Radikal fangenden Eigenschaften der Extrakte.
Der Extrakt aus Beispiel 1 wurde mittels der ESR Spektroskopie untersucht. Bereits in einer Konzentration von 0,01 Gew.-% führte dieser Extrakt zu einer Abnahme des DMPO-Hydroxyaddukt Signals um 79 % auf ein Restsignal von 21 %. Bei einer Konzentration von 0,05 % zeigte sich eine Abnahme des Signals um 89 % und bei einer Konzentration von 0,5 % fand eine völlige Löschung des Signals statt. Als Vergleich diente eine 5 mM α-Tocopherol Lösung, die eine Abnahme des Signals um 65 % bewirkte.

[8] = test system: humanen Fibroblasten; test: Cell protection against UVA on human fibroblasts cultured in vitro; type: cell-based; settings: UVA 20 J/cm^2; 0,0003 % test substance
Procedure: Methode: Zur Durchführung dieser Tests wurde ein definiertes Kulturmedium mit den Fibroblasten mit fötalem Kälberserum beimpft und der Pflanzenextrakt (in dem definierten Medium mit 10 % Fötalem Kälberserum) 72 Stunden nach dem Beimpfen zugegeben.
Nach 48 stündiger Inkubation bei 37 °C und einem CO2-Gehalt von 5 % wurde das Kulturmedium durch Saline-Lösung (physiologische NaCI-Lösung) ersetzt und die Fibroblasten wurden mit einer UVA-Dosis bestrahlt (365 nm, 20 J/cm^2; Röhren: MAZDA FLUOR TFWN40).
Nach der Beendigung der Bestrahlung wurde der MDA-Spiegel (Malonaldialdehyd-Spiegel) in der überstehenden Natriumchlorid-Lösung quantitativ durch Reaktion mit Thiobarbitursäure bestimmt.
Außerdem wurde der Gehalt an Proteinen nach der Methode von Bradford bestimmt und der Gehalt an GSH untersucht wobei es sich um reduziertes Glutathion handelt. Der Gehalt an GSH wurde bstimmt nach der Methode von Hissin (Hissin PJ, Hilf R., A fluorometric method for determination of oxydised and reduced glutathione tissues, Anal. Biochem. 74, 214-226, 1976). Tab.

Compound | EC50 in % DPPH-Test [1] | EC50 in % Luminol [2] | EC50 in % NBT [3] | EC50 in % Luminol + Microperoxydase [4] | other results
O=C1O[C@H]([C@@H](O)CO)C(O)=C1O [Ascorbinsäure] | 0,0013% | 0,0006% | 0,5909% | 0,0058% | 
CC(=O)Oc1ccccc1C(=O)O [Aspirin] |  |  |  |  | Anzahl Keratinocyten [5]: 52 % im Vergleich zur Kontrolle; Gehalt an LDH [5]: 46 % im Vergleich zur Kontrolle; Gehalt an PGE2 [5]: 4 % im Vergleich zur Kontrolle
CCCOC(=O)c1cc(O)c(O)c(O)c1 [n-Propylgallat] |  |  |  |  | AOP50 [6]: 2,9 µg/ml
Cc1c(C)c2c(c(C)c1O)CC[C@@](C)(CCC[C@H](C)CCC[C@H](C)CCCC(C)C)O2 [α-Tocopherol] |  |  |  |  | Abnahme des Signals [7]: 65%
Tocopherol | 0,0067% | Kein Effekt bis zu 1% | Kein Effekt bis zu 1% | Kein Effekt bis zu 1% | Freigesetzter MDA [8]: 19 % im Vergleich zur Kontrolle; GSH/Protein [8]: 77 % im Vergleich zur Kontrolle; Zellproteine [8]: 95 % im Vergleich zur Kontrolle

— patent publication EP1247528A1, “Pharmaceutical or cosmetic compositions containing extracts from Arachis hypogaea L” (Cognis France S.A., priority 2001, dated 2002)
